Like-named read-outs stand apart in the source and are kept apart here.
Experiments:
ISG expression [1] = assay: ISG expression in mesenteric lymph nodes (qRT-PCR); type: in vivo, mouse
ISG expression [2] = assay: ISG expression in spleen (qRT-PCR); type: in vivo, mouse
TLR4 = type: cell-based, mouse
IAV/PR8-GFP = type: cell-based, mouse
VSV-GFP = type: cell-based, mouse
ISG expression [3] = assay: ISG / BST2 expression in BMDCs (qRT-PCR, flow cytometry); type: cell-based, mouse
CD4+ T cells = type: cell-based; settings: data not shown
CD4+FOXP3+ Tregs = assay: Human colon biopsy cLP lymphocytes, IL-10 production by CD4+FOXP3+ Tregs; type: cell-based; settings: total cLP lymphocytes from human colon biopsies, 6-10 days
Protocol: FIG. 13. PSA induces Tregs in cells obtained from human gut tissue biopsies. Total cLP lymphocytes from 8-10 human colon biopsies were treated with PBS, WT-OMV, DPSA-OMV, or purified PSA for 6-10 days. IL-10 production by CD4+FOXP3+ Tregs was assessed by flow cytometry and intracellular cytokine staining. ** p<0.01, One-way ANOVA. Error bars represent mean +S.E.M.

Human specimens = Human specimens response to PSA; type: cell-based
[4] = Mouse autoimmune disease model; type: in vivo; settings: dependent on IFN-I signaling; data not shown
Ifnb1 expression = Ifnb1 expression by lamina propria DCs (qRT-PCR); type: in vivo, mouse; settings: WT SPF mice, 150 ug oral gavage, 1.5 hrs
Protocol: To confirm the relevance of these findings in vivo, Ifnb1 expression by colon LP DCs was analyzed in WT SPF mice administered 150 ug of PSA by oral gavage.
RNA was isolated from whole tissues or the DC^+ and DC^− fractions of spleens, mLNs, and colons following manufacturer's instructions with the RNeasy mini kit (Qiagen). cDNA was prepared with the Quantitect Reverse Transcription Kit (Qiagen). qRT-PCR was performed on a QuantStudio7 Flex or Pro Real-Time PCR system (Applied Biosystems) with RT^2 SYBR Green ROX qPCR Mastermix (Qiagen). Amplification was achieved using an initial cycle of 95° C. for 10 min, followed by 40 cycles of 95° C. for 15 s and 60° C. for 1 min. Gene expression was normalized using Actb as a reference gene. The forward (f) and reverse (r) primers used to detect expression of the corresponding murine genes were as follows (SEQ ID NOs: 1-20, respectively):
Single-cell suspensions of the indicated tissues were prepared as described. DC positive and negative fractions were isolated with mouse pan-DC microbeads (Miltenyi), following the manufacturer's protocol.
GFWT C57BL/6 mice were administered B. fragilis strain NCTC 9343 or C. ramosum strain AO31 by oral gavage [200 uL, approximately 10^8-10^9 colony-forming units (CFU) per mouse]. […]

VSV strain Indiana = settings: mouse, in vivo, po
[5] = WT SPF mice + metronidazole 7 days (Table 3)
[6] = WT SPF mice + metronidazole 7 days (Table 4)

Cc1ncc([N+](=O)[O-])n1CCO [metronidazole]
Ifit1 mLN fold difference gene expression to WT SPF, Mean (ISG expression [1]; [5]): 0.57 fold | Ifit2 mLN fold difference gene expression to WT SPF, Mean (ISG expression [1]; [5]): 0.69 fold | Ifit3 mLN fold difference gene expression to WT SPF, Mean (ISG expression [1]; [5]): 0.76 fold | Irf7 mLN fold difference gene expression to WT SPF, Mean (ISG expression [1]; [5]): 0.68 fold | Mx1 mLN fold difference gene expression to WT SPF, Mean (ISG expression [1]; [5]): 0.78 fold | Oas/2 mLN fold difference gene expression to WT SPF, Mean (ISG expression [1]; [5]): 0.74 fold | Rsad2 mLN fold difference gene expression to WT SPF, Mean (ISG expression [1]; [5]): 0.46 fold | ISG expression in mLN (panel) (ISG expression [1]; WT mice vs WT SPF): significant decreases in ISG expression | Ifit1 Spleen fold difference gene expression to WT SPF, Mean (ISG expression [2]; [6]): 0.57 fold | Ifit2 Spleen fold difference gene expression to WT SPF, Mean (ISG expression [2]; [6]): 0.69 fold | Ifit3 Spleen fold difference gene expression to WT SPF, Mean (ISG expression [2]; [6]): 0.76 fold | Irf7 Spleen fold difference gene expression to WT SPF, Mean (ISG expression [2]; [6]): 0.68 fold | Mx1 Spleen fold difference gene expression to WT SPF, Mean (ISG expression [2]; [6]): 0.78 fold | Oas/2 Spleen fold difference gene expression to WT SPF, Mean (ISG expression [2]; [6]): 0.74 fold | Rsad2 Spleen fold difference gene expression to WT SPF, Mean (ISG expression [2]; [6]): 0.46 fold | ISG expression in spleen (panel) (ISG expression [2]; WT mice vs WT SPF): significant decreases in ISG expression

lipooligosaccharide [LOS]
IFNβ secretion by BMDCs (TLR4; Tlr4−/− BMDCs vs WT): through TLR4 | IFNβ secretion by BMDCs (TLR4; WT BMDCs): dose-dependent manner

polysaccharide A [PSA]
antiviral effect against IAV/PR8-GFP (IAV/PR8-GFP): completely abrogated | cell viability (IAV/PR8-GFP): increase in cell viability | percentage of infected cells (IAV/PR8-GFP): significant reduction | Protection from VSV-GFP infection (VSV-GFP): completely lost | cell viability (VSV-GFP): increased cell viability | percentage of infected (GFP+) cells (VSV-GFP): inhibited virus infection in a dose-dependent manner | Surface BST2 levels (ISG expression [3]; Ifnar1−/− and Ifnb1−/− BMDCs vs WT): significantly reduced | expression of a panel of ISGs (ISG expression [3]; WT BMDCs, 24 hrs, 50 ug/mL, vs vehicle): increase in expression | BST2 mean fluorescence intensity (MFI) (ISG expression [3]; WT BMDCs, 24 hrs, 100 ug/mL, vs vehicle): increased | IL-10 secretion by CD4+ T cells (CD4+ T cells): enhance IL-10 secretion | IL-10 production by CD4+FOXP3+ Tregs (CD4+FOXP3+ Tregs): induces Tregs | response of human specimens (Human specimens): dose-dependent manner | protective effects in a mouse autoimmune disease model [4]: protective effects | Ifnb1 expression by colon LP DCs (Ifnb1 expression): significant increase | daily and cumulative paralysis scores (VSV strain Indiana): decreased | incidence of disease (VSV strain Indiana): decreased | survival (VSV strain Indiana): enhanced survival | IFNβ secretion by BMDCs (TLR4; Myd88−/− BMDCs, 50 ug/mL, 6 hrs): significant decrease | IFNβ secretion by BMDCs (TLR4; Tlr2−/− BMDCs vs WT, 50 ug/mL, 6 hrs): no effect | IFNβ secretion by BMDCs (TLR4; Tlr4−/− BMDCs vs WT): completely lost the ability to secrete IFNβ | IFNβ secretion by BMDCs (TLR4; Trif−/− BMDCs, 50 ug/mL, 6 hrs): lack of increased IFNβ secretion | IFNβ secretion by BMDCs (TLR4; WT BMDCs): significantly induced | IFNβ secretion by BMDCs (TLR4; dectin-1 deficient (Clec7a−/−) BMDCs vs WT, 50 ug/mL, 6 hrs): no effect

From US20230372407A1, “METHODS FOR MODULATING TLR4 SIGNALING” (President and Fellows of Harvard College, priority 2020, published 2023)
